Source: publication PMC4439194 (Biochimica et biophysica acta, 2014)

Target: HmbR (Neisseria meningitidis, UniProt Q9JYA8)
Test: UV-vis absorption and EPR of ferric heme-bound HmbR
Format: binding
Details: 500 mM imidazole, pH 7.4; sixth axial ligand of the bound ferric heme

c1c[nH]cn1 [imidazole]
UV-vis absorption and EPR of ferric heme-bound HmbR: change from pentacoordinate to hexacoordinate ligation upon addition of exogenous imidazole to ferric holoHmbR
